Results taken from US20160015786A1, “MOBILIZING AGENTS AND USES THEREFOR” (MATER MEDICAL RESEARCH INSTITUTE LIMITED, priority 2013, published 2016).

B1: G-CSF: cytokine granulocyte colony-stimulating factor, the main mobilizing agent used in the clinic; recombinant human G-CSF (Amgen) (protein, UniProt P09919 31-207, looked up)
Granulocyte …: TPLGPASSLPQSFLLKCLEQVRKIQGDGAALQEKLVSECATYKLCHPEELVLLGHSLGIPWAPLSSCPSQALQLAGCLSQLHSGLFLYQGLLQALEGISPELGPTLDTLQLDVADFATTIWQQMEELGMAPALQPTQGAMPAFASAFQRRAGGVLVASHLQSFLEVSYRVLRHLAQP
modifications: filgrastim

Assays:
white blood cells = assay: White blood cell number per mL of blood after mobilization treatment; type: in vivo, C57BL/6 mice; settings: Example 7: D 60 mg/kg, E 20 mg/kg, + G-CSF vs vehicle + G-CSF
Experimental: (§1) Additional HIF-α potentiating agents in the form of PHD inhibitors were tested for their ability to enhance mobilization induced by G-CSF. Compound A, Compound B or Compound C, were tested in male, 7 weeks-old C57BL/6 mice. Mice were injected twice daily sub-cutaneously with rhuG-CSF at a dose of 125 μg/kg per injection for four days. Mice were gavaged with 20 mg/kg Compound A, Compound B, Compound C or vehicle control once daily for three days beginning on day 1 of the experiment.
(§2) At the end of treatment, blood was harvested by cardiac puncture, mice were sacrificed by cervical dislocation and spleens harvested. Femurs were removed, cleaned and the bone marrow was flushed with 1 mL PBS+10% newborn calf serum (NCS).

[1] = Spleen weight after mobilization treatment; type: in vivo, C57BL/6 mice; settings: Example 7: D 60 mg/kg, E and F 20 mg/kg, + G-CSF vs vehicle + G-CSF
Experimental: as §1, with “Mice were gavaged with 20 mg/kg Compound A, Compound B, Compound C or vehicle control once daily for three days beginning on day 1 of the experiment.” left out
as §2

[2] = test system: colony-forming cells (CFCs); assay: Mobilization of colony-forming cells (CFC/CFU) to blood and spleen, colony assays; type: in vivo, C57BL/6 mice; settings: for number of CFUs mobilized from the bone marrow to the blood and spleen: Example 7: D 60 mg/kg, E and F 20 mg/kg, + G-CSF vs vehicle + G-CSF, FIG. 13
Experimental: Mobilization of colony-forming cells (CFCs) to the blood and spleen were measured (FIG. 1B).
This was divided into two experiments in which G-CSF was administered for 2 days in one experiment and 4 days in the other (FIG. 2). […] Mobilization of CFCs, phenotypic Lin^−CD41^−Sca1^+Kit^+ HSPCs and Lin^−CD41^− Sca1^+Kit^+CD48^−CD150^+ HSCs were measured in blood and spleens.
Additional HIF-α potentiating agents in the form of PHD inhibitors were tested for their ability to enhance mobilization induced by G-CSF.
as §2
The number of phenotypic hematopoietic stem and progenitor cells remaining in the bone marrow following treatment was measured by flow cytometry using antibodies specific for lineage markers (CD3, CD5, CD45R/B220, F4/80, Gr1, CD41, Ter119), Sca-1, Kit, CD48 and CD150. Similarly, the number of phenotypic hematopoietic stem cells mobilized into the blood and spleen were measured. Colony assays were also performed on blood and spleen to determine the number of colony forming cells per mL of blood and per spleen. […] Levels of significance for differences were calculated using the Student's t-test.
All procedures were approved by the animal experimentation ethics committee of the University of Queensland. […] Plerixafor (AMD3100 octohydrochloride, Tocris Bioscience, Bristol, UK) was injected intraperitoneally as a single 16 mg/kg dose corresponding to 10 mg/kg of AMD3100 base. Tissues were harvested 1 h after Plerixafor administration. […] Control mice were injected with an equivalent volume of saline. At specified time-points, mice were anesthetized with isoflurane before cardiac puncture to harvest blood. Mice were then euthanized by cervical dislocation and BM and bones harvested.
Optimal concentrations of mouse IL-3, IL-6 and soluble kit ligand were added as conditioned media from stably transfected BHK cell lines. Colonies were counted after 7 days culture at 37° C. in a humidified incubator containing 5% CO2.

[3] = test system: hematopoietic stem and progenitor cells; assay: Phenotypic HSCs, HSPCs and myeloid progenitors in blood, spleen and bone marrow by flow cytometry; type: in vivo, C57BL/6 mice; settings: for total number of HSCs and progenitors in the BM: Example 7: Compound D 60 mg/kg; for total number of HSCs and progenitors in the BM / total number of myeloid progenitors (LKS−) mobilized: E and F 20 mg/kg, + G-CSF vs vehicle + G-CSF; for total number of myeloid progenitors (LKS−) mobilized: Example 7: D 60 mg/kg
Experimental: as §1, §2
The number of phenotypic hematopoietic stem and progenitor cells remaining in the bone marrow following treatment was measured by flow cytometry using antibodies specific for lineage markers (CD3, CD5, CD45R/B220, F4/80, Gr1, CD41, Ter119), Sca-1, Kit, CD48 and CD150. Similarly, the number of phenotypic hematopoietic stem cells mobilized into the blood and spleen were measured. Colony assays were also performed on blood and spleen to determine the number of colony forming cells per mL of blood and per spleen. All results are presented as mean f standard deviation with n=6 per groups. Levels of significance for differences were calculated using the Student's t-test.
All procedures were approved by the animal experimentation ethics committee of the University of Queensland. All experiments were performed on nine to twelve-week old C57BL/6 male mice or genetically modified mice back-crossed at least 10 times into C57BL/6. Recombinant human G-CSF (Amgen, Thousand Oaks, Calif.) was injected twice daily subcutaneously at 125 μg/kg per injection for up to 4 consecutive days. Plerixafor (AMD3100 octohydrochloride, Tocris Bioscience, Bristol, UK) was injected intraperitoneally as a single 16 mg/kg dose corresponding to 10 mg/kg of AMD3100 base. Tissues were harvested 1 h after Plerixafor administration. […] Compounds H and J were administered at 60 mg/kg and Compound K was administered at 100 mg/kg. Control mice were injected with an equivalent volume of saline. At specified time-points, mice were anesthetized with isoflurane before cardiac puncture to harvest blood. Mice were then euthanized by cervical dislocation and BM and bones harvested.
Following flushing with PBS plus 2% NCS, enriched central BM cells were pelleted at 370×g for 5 minutes at 4° C. and resuspended in CD16/CD32 hybridoma 2.4G2 supernatant to block IgGFc receptors. HSCs were stained with the biotinylated lineage antibody cocktail (CD3, CD5, B220, CD11b, Gr-1, Ter119) and biotinylated CD41 together with streptavidin (SAV)-Pacific Blue, anti-Sca-1-PECY7, anti-KIT-APC, CD48-FITC and CD150-PE as previously described (17). Data were acquired on a CyAn (Dako Cytomation) flow cytometer and analyzed following compensation with single color controls using FlowJo software (Tree Star, Ashland, Oreg.).

CD34+ cells = settings: cited from earlier work
[4] = test system: colony-forming cells (CFCs); settings: Plerixafor; reference (7); cited from earlier work
[5] = Example 7: 20 mg/kg + G-CSF vs vehicle + G-CSF, FIGS. 12A-B

Row | Molecule | number of white blood cells per mL of blood (white blood cells) | increase in spleen weight [1] | number of CFUs mobilized from the bone marrow to the blood and spleen [2] | total number of HSCs and progenitors in the BM [3] | total number of myeloid progenitors (LKS−) mobilized ([3]; FIGS. 12A-B) | further results
1 | O=C(O)CNC(=O)c1c(O)n(C2CCCCC2)c(=O)n(C2CCCCC2)c1=O [Compound D, [(1,3-Dicyclohexyl-6-hydroxy-2,4-dioxo-1,2,3,4-tetrahydro-pyrimidine-5-carbonyl)-amino]-acetic acid] | significant increase | approximately 2 fold | significantly increased | did not significantly alter | significantly increased | 
2 | CC(C)c1nn(Cc2ccc(-c3ccc(F)cc3)cc2F)c(=O)c(C(=O)NCC(=O)O)c1O [Compound E, {[2-(3,4′-Difluoro-biphenyl-4-ylmethyl)-5-hydroxy-6-isopropyl-3-oxo-2,3-dihydro-pyridazine-4-carbonyl]-amino}-acetic acid] | significant increase | approximately 2 fold | significantly increased | did not significantly alter | significant increase | total number of HSCs (LSK48-150+) mobilized from the bone marrow [3, 5]: significant increase; total number of HSPCs (LSK48+ and LSK) mobilized from the bone marrow [3, 5]: significant increase
3 | c1cc(CN2CCCNCCNCCCNCC2)ccc1CN1CCCNCCNCCCNCC1 [Plerixafor, 1,1′-[1,4-phenylenebis(methylene)]-bis-1,4,8,11-tetra-azacyclotetradecane] |  |  |  |  |  | patients who failed with G-CSF alone who still fail to mobilize adequately (CD34+ cells; G-CSF and Plerixafor, references (8-9)): 40%; patients who previously failed to mobilize with G-CSF alone who reach the minimal threshold (CD34+ cells; Plerixafor daily 1 hr prior to aphaeresis from day 4 of G-CSF, references (8-9)): approximately 60%; mobilization of HSPC to the spleen ([2]; 1 hr following Plerixafor treatment with or without Compound X, FIG. 1D): no significant mobilization; enhancement of CFC mobilization in response to G-CSF ([2]; Plerixafor 16 mg/kg 1 hour prior harvest + 2 days G-CSF, p<0.005): 10 fold; time of peak mobilization post-injection [4]: 1 h
4 | B1 |  |  |  |  |  | chemotherapy-treated patients who fail to reach the minimal threshold of 2×10^6 CD34+ cells/kg (CD34+ cells; autologous setting, in response to G-CSF, reference (1)): 30-60%
